Results: USRE48461E1, “Modulation of androgen receptor expression” (Ionis Pharmaceuticals, Inc., priority 2012, dated 2021)
Oligonucleotides are written 5' to 3', each unit as a sugar letter and its base; * is a phosphorothioate linkage, no mark a phosphodiester; rarer units and linkages stand in square brackets, end groups in braces. Plain capitals give the bases only. e = 2'-O-(2-methoxyethyl) (MOE); k = constrained ethyl (cEt); [5mC] = 5-methylcytosine; d = 2'-deoxy (DNA)

Experiments:
[1] = system: prostate-specific antigen (PSA) mRNA; assay: PSA mRNA levels in LMR20 cells; format: cell-based, human; conditions: LMR20 cells; for PSA mRNA levels (% baseline value) after treatment with DHT: DHT 10 nM 72 hrs; for PSA mRNA levels (% baseline value) after treatment with R1881: R1881 10 nM 72 hrs; for PSA mRNA levels (% baseline value) of cells without AR agonist treatment: no AR agonist
Method: LMR20 cells were plated at 1,500 cells per well in phenol red-free medium with CSS. […] Results are presented in Tables 43-45 as mRNA levels expressed as a percentage of the baseline values. mRNA levels may be lowered or increased after treatment.

AR mRNA [2] = assay: AR mRNA levels in LMR20 cells (with/without DHT or R1881); format: cell-based, human; conditions: LMR20 cells; for AR mRNA levels (% baseline value) after treatment with DHT: DHT 10 nM 72 hrs; for AR mRNA levels (% baseline value) after treatment with R1881: R1881 10 nM 72 hrs; for AR mRNA levels (% baseline value) of cells without AR agonist treatment: no AR agonist
Method: (§1) LMR20 cells were plated at 1,500 cells per well in phenol red-free medium with CSS.

AR mRNA [3] = assay: Dose-dependent antisense inhibition of human AR in HuVEC cells (electroporation, qRT-PCR RTS3559, IC50); format: cell-based; conditions: HuVEC, ~16 h
How it was run: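 HuVEC cells dosed with antisense oligonucleotides by electroporation and treated approximately 16 hours. AR mRNA quantified by real-time qPCR with primer probe set RTS3559 and normalised to total RNA by RIBOGREEN; IC50 from dose-response.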

AR mRNA [4] = assay: Antisense inhibition of human AR in HuVEC cells, single concentration (electroporation, qRT-PCR RTS3559); format: cell-based; conditions: 250 nM ASO, ~24 h, Table 7
How it was run: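 HuVEC cells electroporated with antisense oligonucleotides at a single concentration. AR mRNA quantified by qRT-PCR using human primer-probe set RTS3559 and normalised to total RNA content by RIBOGREEN.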

TMPRSS2 mRNA = TMPRSS2 mRNA levels in LMR20 cells; format: cell-based, human; conditions: LMR20 cells; for TMPRSS2 mRNA levels (% baseline value) after treatment with DHT: DHT 10 nM 72 hrs; for TMPRSS2 mRNA levels (% baseline value) after treatment with R1881: R1881 10 nM 72 hrs; for TMPRSS2 mRNA levels (% baseline value) of cells without AR agonist treatment: no AR agonist
Method: as §1

AR mRNA [5] = assay: AR mRNA in LnCaP cells by free uptake (hAR_LTS00943); format: cell-based, human; conditions: 24 hrs
Method: Cells were plated at a concentration of 4,000 cells/well in 96-well plates. ISIS oligonucleotides, specified in Table 68, were added individually at 0.02 μM, 0.10 μM, 0.50 μM, 2.50 μM, or 10.00 μM. After an incubation period of 24 hrs, mRNA levels were measured using primer probe set hAR_LTS00943.

569236 (antisense eT*kG*kA*kT*dT*dT*dA*dA*dT*dG*dG*kT*kT*kG*e[5mC]*eA) [compound 569236]
PSA mRNA levels (% baseline value) after treatment with DHT ([1]; ASO 0.04 μM): 108 % baseline value | PSA mRNA levels (% baseline value) after treatment with DHT ([1]; ASO 0.20 μM): 79 % baseline value | PSA mRNA levels (% baseline value) after treatment with DHT ([1]; ASO 1.0 μM): 46 % baseline value | PSA mRNA levels (% baseline value) after treatment with DHT ([1]; ASO 5.0 μM): 46 % baseline value | PSA mRNA levels (% baseline value) after treatment with R1881 ([1]; ASO 0.04 μM): 90 % baseline value | PSA mRNA levels (% baseline value) after treatment with R1881 ([1]; ASO 0.20 μM): 90 % baseline value | PSA mRNA levels (% baseline value) after treatment with R1881 ([1]; ASO 1.0 μM): 57 % baseline value | PSA mRNA levels (% baseline value) after treatment with R1881 ([1]; ASO 5.0 μM): 41 % baseline value | PSA mRNA levels (% baseline value) of cells without AR agonist treatment ([1]; ASO 0.04 μM): 122 % baseline value | PSA mRNA levels (% baseline value) of cells without AR agonist treatment ([1]; ASO 0.20 μM): 90 % baseline value | PSA mRNA levels (% baseline value) of cells without AR agonist treatment ([1]; ASO 1.0 μM): 78 % baseline value | PSA mRNA levels (% baseline value) of cells without AR agonist treatment ([1]; ASO 5.0 μM): 73 % baseline value | AR mRNA levels (% baseline value) after treatment with DHT (AR mRNA [2]; ASO 0.04 μM): 94 % baseline value | AR mRNA levels (% baseline value) after treatment with DHT (AR mRNA [2]; ASO 0.20 μM): 77 % baseline value | AR mRNA levels (% baseline value) after treatment with DHT (AR mRNA [2]; ASO 1.0 μM): 44 % baseline value | AR mRNA levels (% baseline value) after treatment with DHT (AR mRNA [2]; ASO 5.0 μM): 34 % baseline value | AR mRNA levels (% baseline value) after treatment with R1881 (AR mRNA [2]; ASO 0.04 μM): 89 % baseline value | AR mRNA levels (% baseline value) after treatment with R1881 (AR mRNA [2]; ASO 0.20 μM): 80 % baseline value | AR mRNA levels (% baseline value) after treatment with R1881 (AR mRNA [2]; ASO 1.0 μM): 44 % baseline value | AR mRNA levels (% baseline value) after treatment with R1881 (AR mRNA [2]; ASO 5.0 μM): 37 % baseline value | AR mRNA levels (% baseline value) of cells without AR agonist treatment (AR mRNA [2]; ASO 0.04 μM): 104 % baseline value | AR mRNA levels (% baseline value) of cells without AR agonist treatment (AR mRNA [2]; ASO 0.20 μM): 87 % baseline value | AR mRNA levels (% baseline value) of cells without AR agonist treatment (AR mRNA [2]; ASO 1.0 μM): 42 % baseline value | AR mRNA levels (% baseline value) of cells without AR agonist treatment (AR mRNA [2]; ASO 5.0 μM): 27 % baseline value | percent inhibition of AR (AR mRNA [3]; 31.25 nM, Table 8): 17% | percent inhibition of AR (AR mRNA [3]; 62.5 nM, Table 8): 39% | percent inhibition of AR (AR mRNA [3]; 62.5 nM, Table 10): 4% | percent inhibition of AR (AR mRNA [3]; 125.0 nM, Table 8): 54% | percent inhibition of AR (AR mRNA [3]; 125.0 nM, Table 10): 35% | percent inhibition of AR (AR mRNA [3]; 500.0 nM, Table 8): 84% | percent inhibition of AR (AR mRNA [3]; 500.0 nM, Table 10): 68% | percent inhibition of AR (AR mRNA [3]; 1000.0 nM, Table 8): 92% | percent inhibition of AR (AR mRNA [3]; 1000.0 nM, Table 10): 88% | IC50 (AR mRNA [3]; Table 8): 0.11 µM | IC50 (AR mRNA [3]; Table 10): 0.252 µM | % inhibition (AR mRNA [4]): 66% | TMPRSS2 mRNA levels (% baseline value) after treatment with DHT (TMPRSS2 mRNA; ASO 0.04 μM): 113 % baseline value | TMPRSS2 mRNA levels (% baseline value) after treatment with DHT (TMPRSS2 mRNA; ASO 0.20 μM): 123 % baseline value | TMPRSS2 mRNA levels (% baseline value) after treatment with DHT (TMPRSS2 mRNA; ASO 1.0 μM): 111 % baseline value | TMPRSS2 mRNA levels (% baseline value) after treatment with DHT (TMPRSS2 mRNA; ASO 5.0 μM): 110 % baseline value | TMPRSS2 mRNA levels (% baseline value) after treatment with R1881 (TMPRSS2 mRNA; ASO 0.04 μM): 126 % baseline value | TMPRSS2 mRNA levels (% baseline value) after treatment with R1881 (TMPRSS2 mRNA; ASO 0.20 μM): 131 % baseline value | TMPRSS2 mRNA levels (% baseline value) after treatment with R1881 (TMPRSS2 mRNA; ASO 1.0 μM): 98 % baseline value | TMPRSS2 mRNA levels (% baseline value) after treatment with R1881 (TMPRSS2 mRNA; ASO 5.0 μM): 95 % baseline value | TMPRSS2 mRNA levels (% baseline value) of cells without AR agonist treatment (TMPRSS2 mRNA; ASO 0.04 μM): 96 % baseline value | TMPRSS2 mRNA levels (% baseline value) of cells without AR agonist treatment (TMPRSS2 mRNA; ASO 0.20 μM): 81 % baseline value | TMPRSS2 mRNA levels (% baseline value) of cells without AR agonist treatment (TMPRSS2 mRNA; ASO 1.0 μM): 59 % baseline value | TMPRSS2 mRNA levels (% baseline value) of cells without AR agonist treatment (TMPRSS2 mRNA; ASO 5.0 μM): 48 % baseline value | Percent inhibition of AR mRNA (AR mRNA [5]; 0.02 μM): 3% | Percent inhibition of AR mRNA (AR mRNA [5]; 0.1 μM): 2% | Percent inhibition of AR mRNA (AR mRNA [5]; 0.5 μM): 21% | Percent inhibition of AR mRNA (AR mRNA [5]; 10 μM): 70%
